For one assay, the target named is T1, hormone sensitive lipase (Homo sapiens, UniProt Q05469).
T1 construct: made in house
T1 sequence (Q05469 1-1076): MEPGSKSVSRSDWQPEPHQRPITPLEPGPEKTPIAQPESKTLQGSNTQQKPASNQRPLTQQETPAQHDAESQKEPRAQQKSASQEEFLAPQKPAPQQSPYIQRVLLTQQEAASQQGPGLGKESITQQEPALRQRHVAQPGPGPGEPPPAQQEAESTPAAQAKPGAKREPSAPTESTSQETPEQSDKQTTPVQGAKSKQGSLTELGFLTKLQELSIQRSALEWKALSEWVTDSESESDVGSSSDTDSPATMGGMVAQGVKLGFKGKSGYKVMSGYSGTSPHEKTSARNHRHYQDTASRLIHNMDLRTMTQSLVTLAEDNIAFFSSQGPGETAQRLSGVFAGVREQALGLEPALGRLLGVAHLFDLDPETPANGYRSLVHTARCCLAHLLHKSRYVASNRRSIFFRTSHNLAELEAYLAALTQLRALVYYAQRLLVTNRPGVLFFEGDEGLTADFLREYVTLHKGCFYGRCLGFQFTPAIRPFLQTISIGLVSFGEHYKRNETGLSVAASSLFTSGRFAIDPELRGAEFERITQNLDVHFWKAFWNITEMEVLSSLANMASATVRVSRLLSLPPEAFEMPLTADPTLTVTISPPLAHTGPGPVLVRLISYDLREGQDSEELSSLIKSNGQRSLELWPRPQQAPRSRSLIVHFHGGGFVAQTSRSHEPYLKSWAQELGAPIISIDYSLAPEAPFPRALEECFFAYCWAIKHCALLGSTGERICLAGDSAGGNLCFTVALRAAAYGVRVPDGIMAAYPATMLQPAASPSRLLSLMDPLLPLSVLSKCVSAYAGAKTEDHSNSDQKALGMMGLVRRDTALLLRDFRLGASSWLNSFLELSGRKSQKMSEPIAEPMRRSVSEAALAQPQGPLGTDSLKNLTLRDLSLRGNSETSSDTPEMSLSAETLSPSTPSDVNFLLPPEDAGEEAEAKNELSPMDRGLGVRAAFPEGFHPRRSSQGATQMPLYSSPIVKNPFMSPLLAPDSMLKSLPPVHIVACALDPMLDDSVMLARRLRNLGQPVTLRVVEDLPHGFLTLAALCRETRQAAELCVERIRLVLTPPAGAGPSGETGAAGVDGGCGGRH
In words: Assay 3190.1: percent inhibition of hormone sensitive lipase by compound at 10 μM (fluorochrome-labeled triacylglyceride emulsion, HSL_FL). The class given is biochemical. As to conditions: 10 μM sample concentration; % activity relative to non-inhibited sample (no compound); 30 min preincubation at 25° C., 120 min incubation at 37° C. From the text:
The Hormone-sensitive lipase was provided by Dr. Cecilia Holm, from Lund University Sweden or produced and purified by Novo Nordisk (NN) using the reagents and protocols used by Dr. Holm. The substrates used are: ^3H-labeled triolein (TO) from Amersham, Buckinghamshire, U.K. cat No. TRA191; 5-20 Ci/mmol dissolved in toluene, triolein (Sigma, Cat. No. T-1740), fluorochrome-labeled triacylglyceride (cis-octadec-9-enoic acid 2-[12-(7-nitrobenzo[1,2,5]oxadiazol-4-ylamino)dodecanoyloxy]-1-cis-octadec-9-enoyloxymethyl-ethyl ester) prepared by Novo Nordisk (NN) by conventional methods, and 1,3-(di[^3H]-stearin), 2-(PEG-Biotin)glycerol prepared in collaboration with Amersham Pharmacia Biotech, UK and described in WO 01/073442. Phosphatidyl choline (PC) and phosphatidyl inositol (PI) are from Sigma (St Luis Mo. cat. Nos. P-3556 and P-5954 respectively). All other reagents are of commercial grade and obtained from various commercial sources.
3190.1: Assay for determination of percent inhibition of hormone sensitive lipase by compound at 10 μM sample concentration.
A lipid emulsion with fluorochrome-labeled triacylglyceride and phospholipid is used as substrate with a standard concentration of highly purified HSL (12 μg/mL initial concentration corresponding to 600 ng/mL final concentration). BSA is added as product acceptor receptor. The transfer of the fluorochrome from the lipid phase to the water (BSA) phase changes the fluorescent properties of the fluorochrome. The changes can be monitored on a fluorimeter with an excitation wavelength of 450 nm and an emission wavelength of 545 nm.
Compound and HSL (20 μL compound, 10 μL enzyme and 70 μL PED-BSA buffer) is pre-incubated for 30 min at 25° C. before addition of substrate (100 μL). Amount of formed product is measured after 120 min incubation at 37° C.
Results are given as percent activity relative to a non-inhibited sample (no compound).
Take “4-(4-Carboxymethyl-phenoxy)-piperidine-1-carboxylic acid 4-(2-phenoxy-ethyl)-phenyl ester [Example 92]”: the “Test 3190.1 HSL_FL % ACTIVITY” value is reported as 3%. Still for that read-out and setting: next, “4-(4-Carboxymethyl-phenoxy)-piperidine-1-carboxylic acid 4-[2-(1-methyl-1H-tetrazol-5-yloxy)-ethyl]-phenyl ester [Example 94]”: 6%; `CCOC(=O)CCc1ccc(OC2CCN(C(=O)Oc3ccc(Oc4ccc(C(F)(F)F)cn4)cc3)CC2)cc1` [Example 31, -[4-(2-Ethoxycarbonyl-ethyl)-phenoxy]-piperidine-1-carboxylic acid 4-(5-trifluoromethyl-pyridin-2-yloxy)-phenyl ester]: 0%.

Staying with this assay, now noted: 10 μM sample concentration; % activity relative to non-inhibited sample (no compound); 30 min preincubation at 25° C., 120 min incubation at 37° C.; read-out: Test 3190.1 HSL_FL % ACTIVITY
`CN(CCC1CCN(C(=O)Oc2ccc(Oc3ccc(C(F)(F)F)cn3)cc2)CC1)Cc1ccccc1` [Example 1, 4-[2-(Benzyl-methyl-amino)-ethyl]-piperidine-1-carboxylic acid 4-(5-trifluoromethyl-pyridin-2-yloxy)-phenyl ester]: the activity at 10 µM was 1%. Consider `O=C(Oc1ccc(Oc2ccc(C(F)(F)F)cn2)cc1)N1CCC(Sc2nccn2-c2cccnc2)CC1` [Example 3, 4-(1-Pyridin-3-yl-1H-imidazol-2-ylsulfanyl)-piperidine-1-carboxylic acid 4-(5-trifluoromethyl-pyridin-2-yloxy)-phenyl ester], for which the activity at 10 µM came out at 5%. Still for that read-out and setting: next, `O=C(Oc1ccc(Oc2ccc(C(F)(F)F)cn2)cc1)N1CCC(Oc2cccnc2)CC1` [Example 10, 4-(Pyridin-3-yloxy)-piperidine-1-carboxylic acid 4-(5-trifluoromethyl-pyridin-2-yloxy)-phenyl ester]: 1%; `O=C(Oc1ccc(Oc2ccc(C(F)(F)F)cn2)cc1)N1CCC(On2nccc2Sc2ccccc2)CC1` [Example 12, 4-(5-Phenylsulfanyl-pyrazol-1-yloxy)-piperidine-1-carboxylic acid 4-(5-trifluoromethyl-pyridin-2-yloxy)-phenyl ester]: 11%; `O=C(Oc1ccc(Oc2ccc(C(F)(F)F)cn2)cc1)N1CCC(Oc2ccc(N3CCN(C4CCCC4)CC3)cc2)CC1` [Example 22, 4-[4-(4-Cyclopentyl-piperazin-1-yl)-phenoxy]-piperidine-1-carboxylic acid 4-(5-trifluoromethyl-pyridin-2-yloxy)-phenyl ester]: 4%. Consider `O=C(O)c1ccc(-c2ccc(OC3CCN(C(=O)Oc4ccc(Oc5ccc(C(F)(F)F)cn5)cc4)CC3)cc2)cc1` [Example 35, 4-(4′-Carboxy-biphenyl-4-yloxy)-piperidine-1-carboxylic acid 4-(5-trifluoromethyl-pyridin-2-yloxy)-phenyl ester], for which the activity at 10 µM worked out at 14%.

Regarding `O=C(O)c1coc(-c2ccc(OC3CCN(C(=O)Oc4ccc(Oc5ccc(C(F)(F)F)cn5)cc4)CC3)cc2)n1` [Example 36, 4-[4-(4-Carboxy-oxazol-2-yl)-phenoxy]-piperidine-1-carboxylic acid 4-(5-trifluoromethyl-pyridin-2-yloxy)-phenyl ester], the activity at 10 µM is 8%.

With `O=C(O)CCc1ccc(OC2CCN(C(=O)Oc3ccc(Oc4ccc(C(F)(F)F)cn4)cc3)CC2)cc1` [Example 37, 4-[4-(2-Carboxy-ethyl)-phenoxy]-piperidine-1-carboxylic acid 4-(5-trifluoromethyl-pyridin-2-yloxy)-phenyl ester], the activity at 10 µM was determined as 1%. With `O=C(O)c1ccc(OC2CCN(C(=O)Oc3ccc(Oc4ccc(C(F)(F)F)cn4)cc3)CC2)cc1` [Example 39, 4-(4-Carboxy-phenoxy)-piperidine-1-carboxylic acid 4-(5-trifluoromethyl-pyridin-2-yloxy)-phenyl ester], the activity at 10 µM is 5%.

Regarding `O=C(O)Cc1ccc(OCC2CCN(C(=O)Oc3ccc(Oc4ccc(C(F)(F)F)cn4)cc3)CC2)cc1` [Example 44, 4-(4-Carboxymethyl-phenoxymethyl)-piperidine-1-carboxylic acid 4-(5-trifluoromethyl-pyridin-2-yloxy)-phenyl ester], the activity at 10 µM stood at 5%.
